According to patent publication US20080015202A1, “Thiazole Derivatives Having Vap-1 Inhibitory Activity” (Astellas Pharma Inc., priority 2004, published 2008):
pIC50: −log10 of the molar value. Counter-ions that a name gives are not always drawn.

molecular target: T1, VAP-1 enzyme (SSAO) in human plasma (Homo sapiens, UniProt Q16853); assay: Inhibitory effect on VAP-1 enzyme (SSAO) activity in human plasma, radiochemical-enzyme assay with 14C-benzylamine; assay type: biochemical; details: human plasma enzyme suspension; 30 min pre-incubation at room temperature; 14C-benzylamine 2×10^−5 mol/l, 37° C., 1 hour
T1 construct: The enzyme suspension prepared from blood plasma was pre-incubated with one of the present compounds; from tissue; host or cells: human blood plasma
T1 sequence (Q16853 27-763 limits assumed): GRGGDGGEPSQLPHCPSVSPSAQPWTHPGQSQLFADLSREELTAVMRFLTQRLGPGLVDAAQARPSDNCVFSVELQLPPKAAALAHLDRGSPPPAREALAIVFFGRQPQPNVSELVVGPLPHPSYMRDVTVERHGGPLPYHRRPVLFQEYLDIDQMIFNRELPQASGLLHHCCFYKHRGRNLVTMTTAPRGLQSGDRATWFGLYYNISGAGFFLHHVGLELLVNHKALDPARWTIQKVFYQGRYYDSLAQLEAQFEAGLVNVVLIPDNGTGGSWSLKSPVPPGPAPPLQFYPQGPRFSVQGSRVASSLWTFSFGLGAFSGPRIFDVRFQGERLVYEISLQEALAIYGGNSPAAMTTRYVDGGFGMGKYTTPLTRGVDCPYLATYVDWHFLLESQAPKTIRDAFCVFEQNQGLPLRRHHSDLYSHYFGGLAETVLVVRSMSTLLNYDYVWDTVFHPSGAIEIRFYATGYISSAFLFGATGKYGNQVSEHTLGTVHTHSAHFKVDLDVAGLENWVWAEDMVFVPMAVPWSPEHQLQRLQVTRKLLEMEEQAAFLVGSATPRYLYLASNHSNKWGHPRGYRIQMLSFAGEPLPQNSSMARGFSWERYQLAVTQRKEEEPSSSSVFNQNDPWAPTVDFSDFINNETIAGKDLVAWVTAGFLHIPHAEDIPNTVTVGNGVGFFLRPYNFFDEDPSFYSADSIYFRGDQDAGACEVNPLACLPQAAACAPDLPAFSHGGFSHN
Method: Inhibitory Effect of the Present Compounds on VAP-1 Enzyme (SSAO) Activity in Human Plasma.
VAP-1 enzyme (SSAO) activity in human plasma was determined by a radiochemical-enzyme assay using ^14C-benzylamine as an artificial substrate. The enzyme suspension prepared from blood plasma was pre-incubated with one of the present compounds or control compound (Reference Example) in 96-well microplate at room temperature for 30 minutes. The enzyme suspension was then incubated with ^14C-benzylamine (2×10^−5 mol/l final concentration) in a final volume of 50 μl at 37° C. for 1 hour. The enzyme reaction was terminated by adding 2 mol/l (50 μl) citric acid. The oxidized products were directly extracted into a 200 μl toluene scintillator, and its radioactivity was measured by a scintillation spectrometer. Inhibition activity was expressed as IC50 (μmol/l) value.

pIC50 | SMILES
7.92 | CC(=O)Nc1nc(CCc2ccc(CNC(=N)N)s2)cs1 [Production Example 3, N-(4-{2-[5-({[amino(imino)methyl]amino}methyl)-2-thienyl]ethyl}thiazol-2-yl)acetamide hydrochloride]
8.62 | CC(=O)Nc1nc(CCc2ccc(CC(=O)NC(=N)N)s2)cs1 [Production Example 4, 2-{5-[2-(2-acetylaminothiazol-4-yl)ethyl]-2-thienyl}-N-[amino(imino)methyl]acetamide]
8.28 | CC(=O)Nc1nc(CCc2ccc(Cc3c[nH]c(N)n3)cc2)cs1 [Production Example 17, N-[4-(2-{4-[(2-amino-1H-imidazol-4-yl)methyl]phenyl}ethyl)thiazol-2-yl]acetamide]

tested on: not given; assay: not given; details: not given

melting point [°C] | SMILES
121.5 to 123 | CC(=O)Nc1nc(CCc2ccc(CCNC(=N)N)s2)cs1 [Production Example 1, N-(4-{2-[5-(2-{[amino(imino)methyl]amino}ethyl)-2-thienyl]ethyl}thiazol-2-yl)acetamide]
188.5 to 190 | CC(=O)Nc1nc(CCc2ccc(CC(=O)NC(=N)N)s2)cs1 [Production Example 4, 2-{5-[2-(2-acetylaminothiazol-4-yl)ethyl]-2-thienyl}-N-[amino(imino)methyl]acetamide]
172 to 173.5 | CC(=O)Nc1nc(CCc2ccc(CC(=O)O)s2)cs1 [Production Example 5, 2-{5-[2-(2-acetylaminothiazol-4-yl)ethyl]-2-thienyl}acetic acid]
140 to 141 | CC(=O)Nc1nc(CCc2ccc(CN3CCN(C(=O)OC(C)(C)C)CC3)cc2)cs1 [Production Example 11, tert-butyl 4-{4-[2-(2-acetylaminothiazol-4-yl)ethyl]benzyl}-1-piperazinecarboxylate]
164 to 165.5 | CC(=O)Nc1nc(CCc2ccc(CN3CCNCC3)cc2)cs1 [Production Example 12, N-(4-{2-[4-(1-piperazinylmethyl)phenyl]ethyl}thiazol-2-yl)acetamide]
